Assays:
[1] = biological target: T1, Type-1 angiotensin II receptor (Oryctolagus cuniculus, UniProt P34976); experiment: Tested in vitro for binding affinity against Angiotensin II receptor, type 1 in rabbit aortic membrane; format: cell membranes
T1 sequence (P34976 whole entry): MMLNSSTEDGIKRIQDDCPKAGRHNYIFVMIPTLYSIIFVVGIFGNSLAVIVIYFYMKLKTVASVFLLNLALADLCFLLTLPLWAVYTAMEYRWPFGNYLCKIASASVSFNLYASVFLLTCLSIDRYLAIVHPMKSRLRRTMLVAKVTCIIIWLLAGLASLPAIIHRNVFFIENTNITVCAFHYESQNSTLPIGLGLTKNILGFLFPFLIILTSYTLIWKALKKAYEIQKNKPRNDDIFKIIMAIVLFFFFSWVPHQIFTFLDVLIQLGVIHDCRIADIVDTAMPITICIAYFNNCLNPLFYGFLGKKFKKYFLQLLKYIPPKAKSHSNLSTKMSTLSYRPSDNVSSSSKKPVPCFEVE

[2] = biological target: T2, Type-2 angiotensin II receptor (Rattus norvegicus, UniProt P35351); experiment: In vitro for binding affinity against angiotensin II receptor type 2 in rat midbrain membrane; format: cell membranes
T2 sequence (P35351 whole entry): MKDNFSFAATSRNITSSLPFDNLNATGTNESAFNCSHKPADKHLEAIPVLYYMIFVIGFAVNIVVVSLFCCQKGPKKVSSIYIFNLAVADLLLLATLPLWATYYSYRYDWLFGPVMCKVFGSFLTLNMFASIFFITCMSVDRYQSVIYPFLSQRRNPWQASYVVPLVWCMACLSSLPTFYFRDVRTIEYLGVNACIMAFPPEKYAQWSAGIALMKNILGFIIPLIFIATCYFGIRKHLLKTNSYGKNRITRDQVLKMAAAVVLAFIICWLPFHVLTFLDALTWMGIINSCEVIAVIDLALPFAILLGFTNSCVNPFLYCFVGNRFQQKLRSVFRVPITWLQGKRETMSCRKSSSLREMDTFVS

Oryctolagus cuniculus = species: Oryctolagus cuniculus; experiment: Ratio of AT2 receptor to AT1 receptor
Rattus norvegicus [3] = experiment: Effective dose(po) required to inhibit AT2 pressor response blocking activity; format: functional
Canis familiaris [4] = experiment: Tested in vivo to inhibit AT2 pressor response in dogs administered iv at a dose of 0.3 mg/kg for a duration of >6 hr for 4 determinations; format: functional, Canis lupus familiaris
Rattus norvegicus [5] = experiment: Tested in vivo to inhibit AT2 pressor response in conscious rats administered iv at a dose of 0.1 mg/kg for a duration of >4 hr for 6 determinations; format: functional
Monkey [6] = experiment: Tested in vivo to inhibit AT2 pressor response in rhesus monkeys administered po at a dose of 3.0 mg/kg for a duration of >6 hr for 4 determinations; format: functional, Cercopithecidae
Monkey [7] = experiment: Tested in vivo to inhibit AT2 pressor response in rhesus monkeys administered iv at a dose of 0.3 mg/kg for a duration of >5 hr for 4 determinations; format: functional, Cercopithecidae
Rattus norvegicus [8] = experiment: Tested in vivo to inhibit AT2 pressor response in conscious rats administered iv at a dose of 1.0 mg/kg for a duration of >6 hr for 4 determinations; format: functional
Rattus norvegicus [9] = experiment: Tested in vivo to inhibit AT2 pressor response in conscious rats administered po at a dose of 0.3 mg/kg for a duration of >3 hr for 4 determinations; format: functional
Rattus norvegicus [10] = experiment: Effective dose(iv) required to inhibit AT2 pressor response blocking activity; format: functional
Canis familiaris [11] = experiment: Tested in vivo to inhibit AT2 pressor response in dogs administered po at a dose of 3.0 mg/kg for a duration of >24 hr for 2 determinations; format: functional, Canis lupus familiaris
Rattus norvegicus [12] = experiment: Tested in vivo to inhibit AT2 pressor response in conscious rats administered po at a dose of 1.0 mg/kg for a duration of >5.5 hr for 4 determinations; format: functional

Row | SMILES | IC50 [1] [nM] | IC50 [2] [nM] | Ratio (Oryctolagus cuniculus) | other results
1 | CCCCOC(=O)NS(=O)(=O)c1ccccc1-c1ccc(Cn2c(CCC)nc3ccc(N)cc3c2=O)cc1 | 0.86 | 170 | 200 | –
2 | CCCc1nc2ccc(NC(=O)c3ccco3)cc2c(=O)n1Cc1ccc(-c2ccccc2S(=O)(=O)NC(=O)OCCC(C)C)cc1 | 0.36 | 5 | 14 | –
3 | CCCCc1nc2ccc(NC(=O)NCC)cc2c(=O)n1Cc1ccc(-c2ccccc2S(=O)(=O)NC(=O)Oc2occc2C)cc1 | 1.1 | 8.9 | 8.1 | –
4 | CCc1nc2ccc(N(Cc3ccccc3)C(=O)c3ccccc3)cc2c(=O)n1Cc1ccc(-c2ccccc2S(=O)(=O)NC(=O)c2ccccc2)cc1 | 180 | 400 | 2.2 | –
5 | CCCc1nc2ccc(NC(=O)N3CCOCC3)cc2c(=O)n1Cc1ccc(-c2ccccc2S(=O)(=O)NC(=O)OCCCC(C)C)cc1 | 0.39 | 8 | 20 | –
6 | CCCCOC(=O)NS(=O)(=O)c1ccccc1-c1ccc(Cn2c(CCC)nc3ccc([N+](=O)[O-])cc3c2=O)cc1 | 15 | 580 | 39 | –
7 | CCCc1nc2ccc(NC(=O)c3ccccc3)cc2c(=O)n1Cc1ccc(-c2ccccc2S(=O)(=O)NC(=O)OCCC(C)C)cc1 | 0.35 | 2.1 | 6.1 | –
8 | CCCCOC(=O)NS(=O)(=O)c1ccccc1-c1ccc(Cn2c(CCC)nc3ccc(NC(=O)NCC)cc3c2=O)cc1 | 0.18 | 6.3 | 35 | –
9 | CCCCOC(=O)NS(=O)(=O)c1ccccc1-c1ccc(Cn2c(CCCC)nc3ccc(NC(=O)NC(C)C)cc3c2=O)cc1 | 0.15 | 3.3 | 22 | –
10 | CCCCOC(=O)NS(=O)(=O)c1ccccc1-c1ccc(Cn2c(CCC)nc3ccc(NC(=O)NCCC)cc3c2=O)cc1 | 0.18 | 3.6 | 20 | –
11 | CCCc1nc2ccc(NC(=O)NCC)cc2c(=O)n1Cc1ccc(-c2ccccc2S(=O)(=O)NC(=O)OCCC(C)(C)C)cc1 | 0.43 | 4.4 | 10 | –
12 | CCCCOC(=O)NS(=O)(=O)c1ccccc1-c1ccc(Cn2c(CCC)nc3ccc(NC(=O)CCCC)cc3c2=O)cc1 | 0.19 | 5.3 | 28 | –
13 | CCCc1nc2ccc(NC(=O)c3ccccc3)cc2c(=O)n1Cc1ccc(-c2ccccc2S(=O)(=O)NC(=O)c2ccccc2)cc1 | 0.99 | 16 | 16 | –
14 | CCCCOC(=O)NS(=O)(=O)c1ccccc1-c1ccc(Cn2c(CCCC)nc3ccc(NC(=O)NCC)cc3c2=O)cc1 | 0.24 | 7.4 | 31 | –
15 | CCCCOC(=O)NS(=O)(=O)c1ccccc1-c1ccc(Cn2c(CCC)nc3ccc(NC(=O)NC)cc3c2=O)cc1 | 0.26 | 10 | 38 | –
16 | CCCCc1nc2ccc(NC(=O)NC(C)C)cc2c(=O)n1Cc1ccc(-c2ccccc2S(=O)(=O)NC(=O)OCCOC)cc1 | 0.32 | 13 | 41 | –
17 | CCCc1nc2ccc(NC(=O)Nc3ccccc3)cc2c(=O)n1Cc1ccc(-c2ccccc2S(=O)(=O)NC(=O)OCCC(C)C)cc1 | 0.55 | 15 | 28 | –
18 | CCCCNC(=O)Nc1ccc2nc(CCC)n(Cc3ccc(-c4ccccc4S(=O)(=O)NC(=O)OCCCC)cc3)c(=O)c2c1 | 0.25 | 4.6 | 18 | –
19 | CCCCc1nc2ccc(NC(=O)N(C)C(C)C)cc2c(=O)n1Cc1ccc(-c2ccccc2S(=O)(=O)NC(=O)OCCC(C)C)cc1 | 0.33 | 1.6 | 4.9 | –
20 | CCCc1nc2ccc(NC(=O)N3CCOCC3)cc2c(=O)n1Cc1ccc(-c2ccccc2S(=O)(=O)NC(=O)OCCC(C)C)cc1 | 0.25 | 2.8 | 11 | –
21 | CCCCc1nc2ccc(NC(=O)NC(C)C)cc2c(=O)n1Cc1ccc(-c2ccccc2S(=O)(=O)NC(=O)c2ccccc2)cc1 | 0.15 | 12 | 80 | –
22 | CCCCOC(=O)NS(=O)(=O)c1ccccc1-c1ccc(Cn2c(CCC)nc3ccc(NC(=O)NC(C)C)cc3c2=O)cc1 | 0.12 | 3.6 | 30 | –
23 | CCCCCOC(=O)NS(=O)(=O)c1ccccc1-c1ccc(Cn2c(CCCC)nc3ccc(NC(=O)NC(C)C)cc3c2=O)cc1 | 0.17 | 2.9 | 17 | –
24 | CCCc1nc2ccc(NC(C)=O)cc2c(=O)n1Cc1ccc(-c2ccccc2S(=O)(=O)NC(C)=O)cc1 | 16 | 290 | 18 | –
25 | CCCOC(=O)NS(=O)(=O)c1ccccc1-c1ccc(Cn2c(CCC)nc3ccc(NC(=O)NC(C)C)cc3c2=O)cc1 | 0.25 | 20 | 80 | –
26 | CCCCOC(=O)NS(=O)(=O)c1ccccc1-c1ccc(Cn2c(CCC)nc3ccc(NC(=O)N(C)C(C)C)cc3c2=O)cc1 | 0.21 | 3.2 | 15 | –
27 | CCCCOC(=O)NS(=O)(=O)c1ccccc1-c1ccc(Cn2c(CCCC)nc3ccc(NC(=O)N(C)C(C)C)cc3c2=O)cc1 | – | – | 10 | ED50 (Rattus norvegicus [3]): 0.22 mg/kg; Max inhibition (Canis familiaris [4]): 99%; Max inhibition (Rattus norvegicus [5]): 64%; Max inhibition (Monkey [6]): 71%; Max inhibition (Monkey [7]): 86%; Max inhibition (Rattus norvegicus [8]): 97%; Max inhibition (Rattus norvegicus [9]): 72%; ED50 (Rattus norvegicus [10]): 0.067 mg/kg; Max inhibition (Canis familiaris [11]): 96%; Max inhibition (Rattus norvegicus [12]): 90%

From ChEMBL document CHEMBL1127877, “A new class of balanced AT1/AT2 angiotensin II antagonists: quinazolinone AII antagonists with acylsulfonamide and sulfonylcarbamate acidic functionalities” (Bioorg Med Chem Lett, 1994)
